One test has as its system E. coli KC-14. Nature of the test: Remedial Effect against Mouse Infectious Diseases, E. coli KC-14. In kind it is in vivo, ddy male mice infected with E. coli KC-14. The arrangement: key: -: ineffective; +: somewhat poorer than enoxacin; ++: comparable to enoxacin; +++: extremely effective. The conditions noted are these: E. coli KC-14, 5.1×10^4 CFU/mouse; single oral dose 2 h after inoculation; survival after one week, compared with enoxacin. As for the experimental part:
(§1) 2. Remedial Effect against Mouse Infectious Diseases:
(§2) E. coli KC-14 and P. aeruginosa E-2 each were suspended in 4% mucin, and 0.25 ml of each of the resulting suspensions was inoculated into the abdominal cavity of ddy male mice (weight: about 20 g, 4-week age, 10 mice for one group). The amount of the bacteria inoculated was 5.1×10^4 CFU/mouse for E. coli KC-14 and 7.5×10^4 CFU/mouse for P. aeruginosa E-2. Two hours after the inoculation of the bacteria, the compound to be tested was orally administered once, and the number of the animals living after one week was counted. The results obtained were compared with those using the control enoxacin.

The next test concerns E. coli. Nature of the test: Measurement of Minimal Growth Inhibitory Concentration (MIC), agar plate dilution, E. coli. In kind it is cell-based. To be noted: Escherichia coli, 10^6 CFU/ml, 37° C., 18 hours, read-out: MIC (2). As for the experimental part:
(§3) 1. Measurement of Minimal Growth Inhibitory Concentration (MIC)
(§4) MIC was measured by agar plate dilution assay method in accordance with the standard by Japan Chemical Therapeutics Association (refer to Journal of Japan Chemical Therapeutics Association, 29 (1), 76 to 79 (1981).
(§5) Briefly, a bacteria suspension as incubated in a bouillon medium for measurement of sensitivity, at 37° C. for 18 hours was diluted to 10^6 CFU/ml with the same medium. This was inoculated on an agar medium for measurement of sensitivity, which contained a compound to be tested, with a microplanter and incubated at 37° C. for 18 hours and then the MIC was measured. Enoxacin was used as a control.

Test [1] relates to P. aeruginosa E-2. The test is described as follows: Measurement of Minimal Growth Inhibitory Concentration (MIC), agar plate dilution, P. aeruginosa. In kind it is cell-based. The conditions noted are these: Pseudomonas aeruginosa, E2, 10^6 CFU/ml, 37° C., 18 hours, read-out: MIC (3). As for the experimental part: as §3, §4, §5
For a further test, the system named is S. aureus. Nature of the test: Measurement of Minimal Growth Inhibitory Concentration (MIC), agar plate dilution, S. aureus. The conditions noted are these: Staphylococcus aureus, 10^6 CFU/ml, 37° C., 18 hours, read-out: MIC (1). In kind it is cell-based. As for the experimental part:
as §3, §4, §5

Test [2] has as its system P. aeruginosa E-2. Nature of the test: Remedial Effect against Mouse Infectious Diseases, P. aeruginosa E-2. The format is in vivo, ddy male mice infected with P. aeruginosa E-2. Also on record: key: -: ineffective; +: somewhat poorer than enoxacin; ++: comparable to enoxacin; +++: extremely effective. The conditions noted are these: P. aeruginosa E-2, 7.5×10^4 CFU/mouse; single oral dose 2 h after inoculation; survival after one week, compared with enoxacin. The procedure: as §1, §2

In brackets after ≈: the same amount, converted by molar mass. Where a name gives a salt, the structure may show the parent alone.

The results in this text go back to US4882328A, “Thiazetidine derivatives” (Nippon Shinyaku Co. Ltd., priority 1987, dated 1989).

Turning to `CC1Sc2c(C(=O)O)c(=O)c3cc(Cl)c(N4CCNCC4)nc3n21` (centres unmarked) [Example 21, 6-Chloro-1-methyl-4-oxo-7-(1-piperazinyl)-4H[1,3]thiazeto[3,2-a]-1,8-naphthyridine-3-carboxylic Acid Hydrochloride], the “Remedial Effect (2)” value with E. coli KC-14 was “+”. In addition, the MIC with E. coli came out at 0.025 µg/mL; in the test on P. aeruginosa E-2 [1], 0.78 µg/mL; with S. aureus, 0.39 µg/mL. In addition, the “Remedial Effect (3)” value with P. aeruginosa E-2 [2] was “+”.

Regarding `O=C(O)c1c2n(c3nc(N4CCNCC4)c(Cl)cc3c1=O)CS2` [Example 20, 6-Chloro-4-oxo-7-(1-piperazinyl)-4H[1,3]thiazeto[3,2-a]-1,8-naphthyridine-3-carboxylic Acid Hydrochloride], the “Remedial Effect (2)” value with E. coli KC-14 is recorded as “+”. In addition, the MIC in the test on E. coli turned out to be 0.05 µg/mL; in the test with P. aeruginosa E-2 [1] it was 0.78 µg/mL; with S. aureus, 0.78 µg/mL. Further, the “Remedial Effect (3)” value in the test on P. aeruginosa E-2 [2] is listed as “-”.

For `CC1Sc2c(C(=O)O)c(=O)c3cc(F)c(N4CCN(C)CC4)nc3n21` (centres unmarked) [Example 14, 6-Fluoro-1-methyl-7-(4-methyl-1-piperazinyl)-4-oxo-4H[1,3]thiazeto[3,2-a]-1,8-naphthyridine-3-carboxylic Acid], in the test with E. coli KC-14, the “Remedial Effect (2)” value is “+++”. In addition, the MIC with E. coli is 0.0125 µg/mL (≈ 0.0343 µM); in the test on P. aeruginosa E-2 [1] it was 0.2 µg/mL (≈ 0.549 µM); with S. aureus, 0.1 µg/mL (≈ 0.274 µM). Besides, the “Remedial Effect (3)” value in the test on P. aeruginosa E-2 [2] is listed as “+++”.

For `CC1Sc2c(C(=O)O)c(=O)c3cc(F)c(N4CCOCC4)nc3n21` (centres unmarked) [Example 18, 6-Fluoro-1-methyl-7-morpholino-4-oxo-4H[1,3]thiazeto[3,2-a]-1,8-naphthyridine-3-carboxylic Acid], in the test on E. coli KC-14, the “Remedial Effect (2)” value is on record as “+”. Further, the MIC is 0.05 µg/mL (≈ 0.142 µM) in the test with E. coli, 0.78 µg/mL (≈ 2.22 µM) in the test on P. aeruginosa E-2 [1] and 0.1 µg/mL (≈ 0.285 µM) in the test with S. aureus. Moreover, the “Remedial Effect (3)” value in the test on P. aeruginosa E-2 [2] is “-”.

On to `CC1Sc2c(C(=O)O)c(=O)c3cnc(N4CCN(C)CC4)nc3n21` (centres unmarked) [Example 7, 1-Methyl-7-(4-methyl-1-piperazinyl)-4-oxo-4H[1,3]thiazeto[3',2'-1,2]pyrido[2,3-d]pyrimidine-3-carboxylic Acid], for which the “Remedial Effect (2)” value in the test with E. coli KC-14 is reported as “++”. Also, the MIC came to 0.1 µg/mL (≈ 0.288 µM) with E. coli, 1.56 µg/mL (≈ 4.49 µM) with P. aeruginosa E-2 [1] and 1.56 µg/mL (≈ 4.49 µM) in the test with S. aureus. In addition, in the test with P. aeruginosa E-2 [2], the “Remedial Effect (3)” value was “-”.

With `CC1Sc2c(C(=O)O)c(=O)c3cc(F)c(N4CCNCC4)nc3n21` (centres unmarked) [Example 12, 6-Fluoro-1-methyl-4-oxo-7-(1-piperazinyl)-4H[1,3]thiazeto[3,2-a]-1,8-naphthyridine-3-carboxylic Acid Hydrochloride], the “Remedial Effect (2)” value in the test on E. coli KC-14 is reported as “+++”. In addition, the MIC in the test on E. coli turned out to be 0.0125 µg/mL; in the test with P. aeruginosa E-2 [1], 0.1 µg/mL; in the test with S. aureus it was 0.1 µg/mL. Further, the “Remedial Effect (3)” value in the test with P. aeruginosa E-2 [2] was “+++”.

`O=C(O)c1c2n(c3nc(N4CCNCC4)c(F)cc3c1=O)C(c1ccc(F)cc1)S2` (centres unmarked) [Example 35, 6-fluoro-1-(4-fluorophenyl)-7-piperazinyl-4-oxo-4H(1,3)thiazeto(3,2-a)-1,8-naphthylidine-3-carboxylic acid]: the MIC in the test on E. coli is 0.1 µg/mL (≈ 0.232 µM); in the test on P. aeruginosa E-2 [1], 0.39 µg/mL (≈ 0.906 µM); in the test on S. aureus, 0.39 µg/mL (≈ 0.906 µM).

For the compound `O=C(O)c1c2n(c3nc(N4CCNCC4)c(F)cc3c1=O)C(c1ccccc1)S2` (centres unmarked) [Example 34, 6-Fluoro-1-phenyl-7-piperazinyl-4-oxo-4H[1,3]thiazeto[3,2-a]-1,8-naphthylidine-3-carboxylic acid hydrochloride], the MIC in the test on E. coli worked out at 0.1 µg/mL; in the test on P. aeruginosa E-2 [1], 0.39 µg/mL; in the test on S. aureus it was 0.39 µg/mL.

As for `O=C(O)c1c2n(c3nc(N4CCNCC4)c(F)cc3c1=O)CS2` [Example 2, 6-Fluoro-7-(1-piperazinyl)-4-oxo-4H[1,3]-thiazeto[3,2-a]-1,8-naphthyridine-3-carboxylic Acid Hydrochloride], the “Remedial Effect (2)” value in the test with E. coli KC-14 was “+”. The figures for the MIC in the test on E. coli, in the test with P. aeruginosa E-2 [1] and in the test on S. aureus were 0.05 µg/mL, 0.39 µg/mL and 0.39 µg/mL, respectively. Further, the “Remedial Effect (3)” value with P. aeruginosa E-2 [2] is listed as “+”.

In the case of `CN1CCN(c2nc3c(cc2F)c(=O)c(C(=O)O)c2n3CS2)CC1` [Example 3, 6-Fluoro-7-(4-methyl-1-piperazinyl)-4-oxo-4H[1,3]-thiazeto[3,2-a]-1,8-naphthyridine-3-carboxylic Acid Hydrochloride], the “Remedial Effect (2)” value in the test on E. coli KC-14 is reported as “+++”. Also, the minimal inhibitory concentration (MIC) with E. coli worked out at 0.025 µg/mL; in the test on P. aeruginosa E-2 [1] it was 0.39 µg/mL; in the test with S. aureus, 0.39 µg/mL. Also, the “Remedial Effect (3)” value with P. aeruginosa E-2 [2] is reported as “+++”.

With `CCn1cc(C(=O)O)c(=O)c2cc(F)c(N3CCNCC3)nc21` [Enoxacin, enoxacin, reference compound], the “Remedial Effect (2)” value with E. coli KC-14 was “++”. In addition, the MIC in the test on E. coli came out at 0.2 µg/mL (≈ 0.624 µM); in the test with P. aeruginosa E-2 [1] it was 0.78 µg/mL (≈ 2.44 µM); in the test with S. aureus, 0.78 µg/mL (≈ 2.44 µM). Moreover, the “Remedial Effect (3)” value in the test on P. aeruginosa E-2 [2] is recorded as “++”.

Take `CC1Sc2c(C(=O)O)c(=O)c3cc(Cl)c(N4CCN(C)CC4)nc3n21` (centres unmarked) [Example 25, 6-Chloro-1-methyl-7-(4-methyl-1-piperazinyl)-4-oxo-4H[1,3]thiazeto[3,2-a]-1,8-naphthyridine-3-carboxylic Acid Ethanesulfonate]: the “Remedial Effect (2)” value in the test on E. coli KC-14 is given as “+”. In addition, the MIC with E. coli amounted to 0.025 µg/mL; in the test on P. aeruginosa E-2 [1], 0.78 µg/mL; with S. aureus, 0.39 µg/mL. The “Remedial Effect (3)” value in the test with P. aeruginosa E-2 [2] is “-”.

A word on the MIC: it is the smallest concentration in the dilution series that meets the test's criterion for growth inhibition.
